# Columns and labels:
# [1] = Permeability and efflux transporter substrate evaluation in Caco-2 cells; type: in vitro ADME; parameters: Papp A→B at 120 min / Papp B→A at 120 min / efflux ratio at 120 min / Papp at 120 min: dose or concentration left out as unconfirmed; conditions: human; for Papp at 120 min / efflux ratio at 120 min: Caco-2, pH 7.4; for Papp at 120 min: read-out: Classification Permeability; for Papp A→B at 120 min / Papp B→A at 120 min: pH 7.4, pH 7.40; for Papp A→B at 120 min: Caco-2, apical to basolateral; for Papp B→A at 120 min: Caco-2, basolateral to apical
# Procedure, shortened: (§1)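 Bidirectional (A-B, B-A) transport across 21-28-day Caco-2 monolayers in HBSS/10 mM HEPES pH 7.40, test substance at […], 7200 s incubation. LC-MS/MS quantitation; Papp, efflux ratio and recovery calculated, monolayer integrity checked by Lucifer Yellow rejection.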
# Caco-2 cells = experiment: as above; type: in vitro ADME; parameters: Papp A→B at 120 min / Papp B→A at 120 min / efflux ratio at 120 min / Papp at 120 min: dose or concentration left out as unconfirmed; conditions: Caco-2
# Procedure, shortened: as §1
# HCT116 cells [2] = experiment: In vivo pharmacodynamic study of compound 1 in HCT116 tumor-bearing mice; parameters: species or system Balb/C Nude mice; conditions: 20 mg/kg once a day by gavage, vs sham group
# From the text: Balb/C Nude mice, SPF grade, male, weighing 18-20 g, were purchased from Jiangsu Gempharmatech Co., Ltd.
# HCT116 cells were purchased from ATCC.
# Matrigel Matrix, Cat. No. 354248, was purchased from Becton, Dickinson and Company.
# Kolliphor® HS 15, Cat. No. 42966, was purchased from Sigma-Aldrich.
# (§2) a. Establishment of tumor-bearing mouse model: HCT116 cells in the logarithmic growth phase were taken and cultured, the cells were collected and counted, and then subcutaneously inoculated into Balb/C Nude mice at 1×10^6/mouse. The tumor volume and body weight of the mice were measured regularly. 7 days after inoculation, mice with tumor volume of 150 mm3 were randomly divided into groups and treated with corresponding drugs.
# b. […] The administration was performed once a day by gavage for 21 consecutive days, and the tumor volume and body weight of the mice were measured regularly.
# (§3) 3. Data processing: All data were organized in EXCEL, and One-way ANOVA analysis and drawing were performed using GraphPad Prism 8.0 software. Statistical significance was achieved when p<0.05.
# HCT116 cells [3] = experiment: In vivo pharmacodynamic study of compound 18 in HCT116 tumor-bearing mice; parameters: species or system Balb/C Nude mice; conditions: 60 mg/kg once a day by gavage
# Procedure: as §2, §3
# 1. Experiment materials: Same as Test example 5.
# a. Establishment of tumor-bearing mouse model: Same as Test example 5.
# b. […] The administration was performed once a day by gavage for 7 consecutive days, and the tumor volume and body weight of the mice were measured regularly.
# 3. Data processing: Same as Test example 5.
Papp at 120 min [1],Papp A→B at 120 min [1],Papp B→A at 120 min [1],Classification Efflux transporter substrate (Caco-2 cells),efflux ratio at 120 min [1],SMILES,tumor inhibition rate (HCT116 cells [2]; 11 days),tumor inhibition rate (HCT116 cells [2]; 16 days),tumor inhibition rate (HCT116 cells [2]; 21 days),body weight decrease compared to before administration (HCT116 cells [3]; 5 days),body weight decrease compared to before administration (HCT116 cells [3]; 7 days),"tumor inhibition rate (HCT116 cells [3]; 7 days, vs control group)"
< 0.5 ×10⁻⁶ cm/s,< 0.48 ×10⁻⁶ cm/s,13.7 ×10⁻⁶ cm/s,Likely (ERa ≥ 2.00),> 28.6,CN1CCN(c2ccc(OC(F)(F)F)c(Nc3ncc4c(n3)-c3c(c(C(=O)NN)nn3CCO)CC4)c2)CC1 [Compound 13],–,–,–,–,–,–
0.5 to 2.5 ×10⁻⁶ cm/s,1.3 ×10⁻⁶ cm/s,13.4 ×10⁻⁶ cm/s,Likely (ERa ≥ 2.00),10.4,Cn1nc(C(N)=O)c2c1-c1nc(Nc3cc(N4CCN(CCO)CC4)ccc3OC(F)(F)F)ncc1CC2 [Compound 20],–,–,–,–,–,–
0.5 to 2.5 ×10⁻⁶ cm/s,0.917 ×10⁻⁶ cm/s,6.66 ×10⁻⁶ cm/s,Likely (ERa ≥ 2.00),7.27,Cn1nc(C(N)=O)c2ccc3cnc(Nc4cc(N5CCN(CCO)CC5)ccc4OC(F)(F)F)nc3c21 [Compound 16],–,–,–,–,–,–

# Further lines, the compound ahead of its results:
SMILES,Papp at 120 min [1],Papp A→B at 120 min [1],Papp B→A at 120 min [1],Classification Efflux transporter substrate (Caco-2 cells),efflux ratio at 120 min [1],tumor inhibition rate (HCT116 cells [2]; 11 days),tumor inhibition rate (HCT116 cells [2]; 16 days),tumor inhibition rate (HCT116 cells [2]; 21 days),body weight decrease compared to before administration (HCT116 cells [3]; 5 days),body weight decrease compared to before administration (HCT116 cells [3]; 7 days),"tumor inhibition rate (HCT116 cells [3]; 7 days, vs control group)"
"CN1CCN(c2ccc(OC(F)(F)F)c(Nc3ncc4c(n3)-c3c(c(C(N)=O)nn3CCO)CC4)c2)CC1 [Onvansertib, reference compound]",< 0.5 ×10⁻⁶ cm/s,0.299 ×10⁻⁶ cm/s,43.6 ×10⁻⁶ cm/s,Likely (ERa ≥ 2.00),–,54.9%,39.6%,37.0%,8.4%,19.5%,62.7%
CN1CCN(c2ccc(OCC(F)(F)F)c(Nc3ncc4c(n3)-c3c(c(C(N)=O)nn3CCO)CC4)c2)CC1 [Compound 24],< 0.5 ×10⁻⁶ cm/s,0.106 ×10⁻⁶ cm/s,29.5 ×10⁻⁶ cm/s,Likely (ERa ≥ 2.00),279,–,–,–,–,–,–
CN1CCN(c2ccc(OC(F)(F)F)c(Nc3ncc4c(n3)-c3c(c(C(N)=O)nn3CCC#N)CC4)c2)CC1 [Compound 4],0.5 to 2.5 ×10⁻⁶ cm/s,1.16 ×10⁻⁶ cm/s,25.5 ×10⁻⁶ cm/s,Likely (ERa ≥ 2.00),22.1,–,–,–,–,–,–
CN1CCN(c2ccc(OC(F)(F)F)c(Nc3ncc4c(n3)-c3c(c(C(N)=O)cn3CCO)CC4)c2)CC1 [Compound 2],< 0.5 ×10⁻⁶ cm/s,< 0.48 ×10⁻⁶ cm/s,26.1 ×10⁻⁶ cm/s,Likely (ERa ≥ 2.00),> 54.4,–,–,–,–,–,–

# Source: US20260176249A1, “PROTEIN KINASE INHIBITOR, PREPARATION METHOD THEREFOR, AND APPLICATION THEREOF” (SHANDONG LUYE PHARMACEUTICAL CO., LTD., priority 2021, published 2026)
